The test system of one assay is P388. Conditions: IP, Q1D × 9, female mice.
For assay [1], the system named is 60 human tumor cell lines. In words: NCI in vitro primary screen, panel of 60 human tumor cell lines. Conditions: for GI50: Homo sapiens. Format: cell-based. The text has this: Only two hundred years ago, many diseases ravaged humankind. Many of these diseases now have been controlled or eradicated. In the development of the means to treat or control these diseases, work with the appropriate common experimental animals was of critical importance. With the various types of cancers, and with the HIV virus, such work is presently ongoing. The research for the treatment of various types of cancer is coordinated in the United States by the National Cancer Institute (NCI). NCI, as a government entity, has been charged with assisting anti-cancer research. To establish whether a substance has anti-cancer activity, NCI has established a variety of protocols, one of which involves testing the candidate substance against a cell line panel containing 60 human tumor cell lines. This protocol has been verified and is generally accepted throughout the scientific community. This protocol and the established statistical means of evaluating the results obtained therefrom have been fully described in the literature. See Principles & Practice of Oncology PPO Updates, Volume 3, Number 10, October 1989, by Michael R. Boyd, M.D., Ph.D., for an in depth description of the test protocol. The statistical analysis is explained in "Display and Analysis of Patterns of Differential Activity of Drugs Against Human Tumor Cell Lines: Development of Means Graph and COMPARE Algorithm" Journal of the National Cancer Institute Reports Vol. 81, No. 14, Pg. 1088, Jul. 14, 1989, by K. D. Paull et al. Both of these references are incorporated herein by this reference thereto. The effectiveness and validity of the NCI in vitro protocol continues to be verified.
^a All compounds were tested in quadruplicate at five different con-
entire panel of 60 human tumor cell lines comprising the NCI
^c Correlation coefficients from the Compare pattern-recognition
algorithm were calculated by computer using the TGI-centered
mean graph profiles of differential cellular sensitivities to 1, and
5. The TGI mean graph profile of 1 was used as the benchmark or
"seed" for all of the comparisons.

For assay [2], the system named is 60 human tumor cell lines. The note with it: Background on spongistatins from Spongia sp; cited from earlier work.
The subject of assay [3] is P388 lymphocytic leukemia cell line. In words: P388 lymphocytic leukemia cell line bioassay. Conditions: Mus musculus; PS (P388); pure compound; read-out: ED50 (the source's name). Format: cell-based.

Converted amounts (≈) assume the structure as drawn. Like-named read-outs stand apart in the source and are kept apart here.

Turning to `C=C(Cl)/C=C/[C@H](O)CC(=C)C[C@H]1OC2[C@@H](O)[C@]3(O)C[C@@H](O)[C@H](C)[C@H](CCC/C=C\[C@@H]4C[C@@H](O)C[C@]5(C[C@H](OC)CC(CC(=O)[C@@H](C)[C@H](O)[C@@H](C)C(=C)C[C@@H]6C[C@@](C)(O)C[C@]7(C[C@H](OC(C)=O)CC(CC(=O)O[C@@H]([C@@H]1O)[C@H]2C)O7)O6)O5)O4)O3` [spongistatin 4], the “% ILS (increase in life span over controls)” value in the assay on P388 (5 μg/kg/dose) is on record as “+55%”.
As for `C=C(Cl)/C=C/C(O)CC(=C)CC1OC2C(C)C(OC(=O)CC3CC(OC(C)=O)CC4(CC(C)(O)CC(CC(=C)C(C)C(OC(C)=O)C(C)C(=O)CC5CC(OC)CC6(CC(O)CC(/C=C\CCCC7OC(O)(CC(O)C7C)C2O)O6)O5)O4)O3)C1O` (stereo not drawn) [spongistatin 1, reference compound], the GI50 (usually the concentration giving 50% growth inhibition) amounted to 0.1 nM in assay [1] (NCI 60 cell line panel, read-out: panel mean GI50) and 0.117 nM in assay [1] (quadruplicate, five concentrations, standard errors averaged less than 15% of means, read-out: Mean Panel GI50). In addition, in assay [1] (TGI-centered mean graph profiles, spongistatin 1 as seed), the “Compare Correlation Coefficient” value was found to be 1.00. Also, in assay [1] (pattern-recognition analyses, data not shown), the “correlation of mean-graph fingerprint with microtubule-interactive antimitotics” value is “closely correlated”. Moreover, the “% ILS (increase in life span over controls)” value with P388 (25 μg/kg/dose) is recorded as “+33%”; in the assay on P388 (40 μg/kg/dose), -10%. Moreover, the “potency in NCI panel” value in assay [2] is “one of the most extraordinarily potent substances presently known”.
As for `C=C(Cl)/C=C/[C@H](O)CC(=C)C[C@H]1OC2[C@@H](O)[C@]3(O)C[C@@H](O)[C@H](C)[C@H](CCC/C=C\[C@@H]4C[C@@H](O)C[C@]5(C[C@H](OC)CC(CC(=O)[C@@H](C)[C@H](OC(C)=O)[C@@H](C)C(=C)C[C@@H]6C[C@@](C)(O)C[C@]7(C[C@H](O)CC(CC(=O)O[C@@H]([C@@H]1O)[C@H]2C)O7)O6)O5)O4)O3` [spongistatin 3], the “potency in NCI panel” value in assay [2] is on record as “exceptionally potent”.
On to `C=C(Cl)/C=C/C(O)CC(=C)CC1OC2C(C)C(OC(=O)CC3CC(OC(C)=O)CC4(CC(C)(O)CC(C=C5COC(C(C)C(=O)CC6CC(OC)CC7(CC(O)CC(/C=C\CCCC8OC(O)(CC(O)C8C)C2O)O7)O6)C5C)O4)O3)C1O` (stereo not drawn) [spongistatin 9], for which the IC50 in assay [3] was less than 0.1 ng/mL.
As for `C=C/C=C/C(O)CC(=C)CC1OC2C(C)C(OC(=O)CC3CC(OC(C)=O)CC4(CC(C)(O)CC(C=C5COC(C(C)C(=O)CC6CC(OC)CC7(CC(O)CC(/C=C\CCCC8OC(O)(CC(O)C8C)C2O)O7)O6)C5C)O4)O3)C1O` (stereo not drawn) [spongistatin 8], the IC50 in assay [3] is 0.8 ng/mL (≈ 0.698 nM).
With `C=C/C=C/C(O)CC(=C)CC1OC2C(C)C(OC(=O)CC3CC(OC(C)=O)CC4(CC(C)(O)CC(CC(=C)C(C)C(O)C(C)C(=O)CC5CC(OC)CC6(CC(O)CC(/C=C\CCCC7OC(O)(CC(O)C7C)C2O)O6)O5)O4)O3)C1O` (stereo not drawn) [spongistatin 6], the “% ILS (increase in life span over controls)” value with P388 (40 μg/kg/dose) was “+70%”.

The record behind these values is patent US5393897A, “Isolation and structure of spongistatins 5,7,8 and 9” (Arizona Board of Regents acting on behalf of Arizona State …, priority 1993, dated 1995).
